The results in this text go back to US10912752B2, “Methods and compositions for reducing ocular discomfort” (Brien Holden Vision Institute Limited, priority 2012, dated 2021).

Molecules are shown by their SMILES.

The subject of series [1] is human corneal epithelial cell. Nature of the series: Evaporative drying culture model, Annexin V/PI apoptotic/necrotic cells. In kind it is cell-based. The settings on record: 0.25% in culture medium, 4 hrs evaporative drying, 34° C. The protocol:
A in vitro human corneal epithelial cell culture model was used where cells were cultured under a slow drying condition with the culture medium slowly evaporated over the time period of 4-4.5 hours at 34° C. (the temperature of human eyes) to mimic tear film evaporation.

Series [2] concerns HCLE cells. Nature of the series: MTT mitochondrial activity after hyperosmolar medium. The class given is cell-based, human. The settings on record: 5 or 10 mM, 500 mOsm, 16 h, vs hyperosmotic control. The protocol:
(§1) 500 mOsm and exposure time (16 h) to be the most informative under which to observe hyperosmolality induced cellular responses of HCLE (results not shown). Thus, in the present study, a hyperosmotic medium of 500 mOsm and exposure time of 16 h were used throughout. Hyperosmolar media were prepared by the addition of NaCl to the medium. Medium osmolarity was measured using a Vapro 5520 vapour pressure osmometer (Wescor, Logan, Utah). Subconfluent cells were exposed to hyperosmolar media in the presence or absence of betaine (5 or 10 mM). Mitochondrial and proliferation activities for cell viability; TNF-α production; caspase activity and Annexin V/PI staining for apoptosis; and cellular shrinkage were monitored as detailed below.
(§2) MTT viability assay kit was used to measure cell viability (above). CyQUANT cell proliferation assay kit (Invitrogen-Molecular probe, Eugene, Oreg.) was used to determine the cell number. Culture supernatants were removed and centrifuged at 1500 rpm for 10 min to harvest any detached cells from the supernatant. Remaining cells were rinsed once with PBS. […] Fluorescence, indicating cell viability, was measured using SpectraFluor Plus microplate reader (Tecan, Männedorf, Switzerland); 485 nm for excitation and 535 nm for emission maxima.

Series [3] has as its system HCLE cells. Nature of the series: CyQUANT cell number after hyperosmolar medium. The class given is cell-based, human. Particulars: 5 or 10 mM, 500 mOsm, 16 h, vs hyperosmotic control. The protocol:
as §1, §2

The nature of series [4]: Effect on final osmolarity of culture medium (vapour pressure osmometer). The class given is physicochemical. Particulars: up to 10 mM; results not shown. The protocol: as §1
Series [5] relates to HCLE cells. Nature of the series: Annexin V/PI/Hoechst staining, confocal microscopy, damaged cells. Particulars: 500 mOsm + 10 mM, 16 h. The class given is cell-based, human. The protocol: Cells undergoing apoptosis or necrosis were identified using Alexa Fluor 488 annexin V/Dead cell apoptosis assay (Invitrogen-Molecular probe) with some modifications. Cells were seeded at 6.5×10^4 cells mL^−1 in 75 cm^2 cell culture flask and incubated overnight. Once the cells reached 70%-80% confluence, they were subjected to different osmolarity treatments for 16 hours. Supernatants were removed and retained for collection of non-adherent cells. Adherent cells were rinsed twice with PBS and detached using 0.05% trypsin. The culture supernatant and trypsin digests were pelleted, rinsed twice in PBS, and combined during resuspenison in annexin-binding buffer. Five microlitres of Alexa Fluor 488 annexin V, 12.5 μg mL^−1 of Hoechst 33342 and 1 μg mL^−1 of propidium iodide (PI) were added to 100 μL of cell suspension containing approximately 1×10^5 cells and incubated at room temperature for 15 minutes. Cells were washed with 200 μL of annexin-binding buffer and deposited onto coverslips. […] Cells stained with annexin V, PI or Hoechst for apoptotic, necrotic or total cells, respectively, were quantified for each image using ImageJ (http://rsbweb.nih.gov/ij/; National Institutes of Health, Bethesda, Md.) to obtain an average value for each treatment.

Turning to `C[N+](C)(C)CC(O)CC(=O)[O-]` (centres unmarked) [carnitine, 3-hydroxy-4-(trimethylazaniumyl)butanoate], the “cellular damage (apoptotic and necrotic cells) caused by evaporation-increased osmolarity” value in series [1] was “minimised the cellular damage”.
`C[N+](C)(C)CC(=O)[O-]` [betaine, trimethylglycine]: in the series with HCLE cells [2], the “increase in mitochondrial activity” value was determined as 17%. The “increase in cell numbers” value with HCLE cells [3] is listed as 12%. The “effect on the final osmolarity of the medium” value in series [4] is “minimal effect”. Also, in the series on HCLE cells [5], the “percentage of damaged cells (of the total cells)” value worked out at 7.5%.
